Laboratory results: PMC7083565, “In vitro metabolism, reaction phenotyping, enzyme kinetics, CYP inhibition and induction potential of ataluren” (Pharmacology Research & Perspectives, 2020)

Key:
CYP2B6 = experiment: CYP induction in primary human hepatocytes: CYP2B6; assay type: in vitro ADME; conditions: Bupropion-hydroxylase, 48 hours, n=3
Method: Human hepatocytes isolated from three Caucasian males were transferred to 48‐well collagen‐coated plates at 0.14 × 10^6 cells/well in planting media for attachment. After attachment, planting media was replaced with sandwich media and the cells were incubated until clusters were established. […] The incubation solutions were aspirated and replaced with freshly prepared incubation solutions containing ataluren for an additional 24 hours. […] The incubation solutions were then aspirated and 150 µL of K‐H buffer containing CYP substrates were added. The hepatocytes were incubated for 30 minutes for CYP2C8 (10 µmol/L amodiaquine), 1 hour for CYP3A4 (125 µmol/L testosterone), and 4 hours for CYPs 1A2 (100 µmol/L phenacetin), 2A6 (100 µmol/L coumarin), 2B6 (150 µmol/L bupropion), 2C9 (50 µmol/L tolbutamide), 2C19 (100 µmol/L S‐mephenytoin), and 2E1 (300 µmol/L chlorzoxazone) activity assays. The reactions were stopped by the addition of 0.15 mL of ice‐cold methanol except that coumarin‐treated cells were incubated with β‐glucuronidase and aryl sulfatase for additional 1 hour to free 7‐hydroxycoumarin before the addition of 0.2 mL of ice‐cold methanol. Metabolite formation in incubations with test compounds and control inhibitors was assessed with validated LC‐MS/MS methods for each of the reaction products as described in Table S2. Enzymatic activity for each CYP was calculated using the absolute amount of metabolite formed (pmol) divided by hepatocytes in the incubation (million cells) and the incubation time (minute). The relative fold induction in enzymatic activity was calculated by comparing the rate of metabolite formation for treatment groups to that of the solvent control group (reported as vehicle control%) or positive control group (reported as positive control%).

UGT1A9 = target: T1, UGT1A9 (Homo sapiens, UniProt O60656); experiment: Reaction phenotyping with recombinant human UGT enzymes: UGT1A9; assay type: in vitro ADME; conditions: rUGT1A9 0.25 mg protein/mL, 10 μmol/L, 60 minutes, n = 2
T1 construct: purchased BD Biosciences; host or cells: baculovirus-infected insect cells
T1 sequence (O60656 26-530): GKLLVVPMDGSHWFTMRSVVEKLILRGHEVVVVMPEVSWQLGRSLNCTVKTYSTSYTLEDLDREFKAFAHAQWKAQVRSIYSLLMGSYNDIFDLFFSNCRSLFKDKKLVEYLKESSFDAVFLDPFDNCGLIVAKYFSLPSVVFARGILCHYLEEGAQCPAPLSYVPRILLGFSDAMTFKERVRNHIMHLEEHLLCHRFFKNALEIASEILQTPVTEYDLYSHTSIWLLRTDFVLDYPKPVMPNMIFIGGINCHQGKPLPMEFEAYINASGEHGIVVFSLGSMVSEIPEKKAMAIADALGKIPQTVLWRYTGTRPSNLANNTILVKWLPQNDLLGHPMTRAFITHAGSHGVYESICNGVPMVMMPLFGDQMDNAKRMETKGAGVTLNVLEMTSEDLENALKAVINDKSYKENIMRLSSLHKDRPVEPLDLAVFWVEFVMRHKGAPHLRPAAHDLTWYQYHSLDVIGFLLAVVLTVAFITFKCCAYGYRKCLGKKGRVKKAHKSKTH
Method: Ataluren at 10 μmol/L, was incubated (n = 2) with recombinant human uridine diphosphate glucuronosyltransferase (rUGT) enzymes: rUGTs 1A1, 1A3, 1A4, 1A6, 1A7, 1A8, 1A9, 1A10, 2B4, 2B7, 2B15, and 2B17 at 0.25 mg protein/mL. Incubations were conducted in duplicate at 37°C. The incubation mixture (0.2 mL, final volume with 1% methanol) consisted of Tris‐HCl buffer (100 mmol/L, pH 7.7 at 37°C), MgCl2 (10 mmol/L), EDTA (1 mmol/L), saccharic acid 1,4‐lactone (0.1 mmol/L), and UDPGA (8 mmol/L). […] Samples were subjected to centrifugation (920 g for 10 minutes at 10°C) and the supernatant fractions were analyzed by LC‐MS/MS to quantify the formation of ataluren‐O‐1β‐acyl glucuronide and loss of ataluren. […] The ataluren acyl glucuronide formation rate after 60 minutes incubation was calculated using the amount of metabolite formed (pmol) divided by the protein amount in the incubation sample (0.05 mg) and the incubation time (60 minutes).
Quantification of ataluren loss and ataluren‐O‐1β‐acyl glucuronide formation was carried out with an LC‐MS/MS system, which consisted of two Shimadzu LC‐10ADvp pumps, a SPD10‐AVP UV/Vis detector, a Shimadzu SILHTA autosampler, a Shimadzu DGU‐14A degasser, and a Sciex API 4000 QTRAP mass spectrometer equipped with a Turbo Ionspray ionization source that operated in positive ionization mode. […]

[1] = Glucuronidation in liver microsomes (tissue comparison); assay type: in vitro ADME, human; conditions: 10 μmol/L, 60 minutes, n = 1

Question: With O=C(O)c1cccc(-c2noc(-c3ccccc3F)n2)c1 [ataluren, Ataluren] as the compound, how does the “Positive control %, Mean” value (CYP2B6; ataluren 4 µM) read?
Answer: The value was 2.81%.

Question: And the “Vehicle control %, Mean” value (CYP2B6; ataluren 4 µM)?
Answer: Its value is 111%.

Question: And the “Positive control %, Mean” value (CYP2B6; ataluren 40 µM)?
Answer: Its value is 6.27%.

Question: And the “Vehicle control %, Mean” value (CYP2B6; ataluren 40 µM)?
Answer: The value was 123%.

Question: And the “Positive control %, Mean” value (CYP2B6; ataluren 400 µM)?
Answer: The value was 19.8%.

Question: What about the “Vehicle control %, Mean” value (CYP2B6; ataluren 400 µM) of the same compound?
Answer: The value was 170%.

Question: What about the ataluren loss (UGT1A9) of the same compound?
Answer: Its ataluren loss is 32.7%.

Question: What about the ataluren loss [1] of the same compound?
Answer: The ataluren loss was 31.4%.
